The experiment deals with methylphenidate. Kind of experiment: Methylphenidate antagonism in mice (antagonism of biting of corrugated paper). The experiment is classed as in vivo, NMRI male mice. The settings on record: for ED50: Mus musculus; for ED50 / Methylphenidate antagonism, duration of peak effect: mice; for Methylphenidate antagonism, comparison in words (peak effect and duration): compared within the table, with known substances. An excerpt:
The test may briefly be described as follows:
As animals were used NMRI male mice weighting 18-25 grams.
5 × 2 mice are used for each dose level.
[…] At each time interval separate groups of mice were used. After administration of methylphenidate the mice are placed in the observation cages, 2 in each cage, where they remain for one hour. The cages are placed on corrugated paper, the corrugations facing upwards. It is examined whether or not the mice have been biting the corrugated paper. […] At each time interval separate groups of mice were used. The peak effect was determined for the test substances and also for a number of known neuroleptics.
The test was carried out on a number of the novel compounds of Formula I and on a number of closely related thiaxanthene derivatives.

Where [1] appears, read: ip, i.p. test substance, 24 h after administration, read-out: Methylphenidate antagonism, ED50 24 h i.p.
Where [2] appears, read: route p.c. [sic], at peak effect, read-out: Methylphenidate antagonism, Peak effect ED50 p.c.

Structures are written as SMILES. Like-named read-outs stand apart in the source and are kept apart here.

Ten compounds from patent US4035503A, “Xanthene and thioxanthene derivatives, compositions thereof and a method of preparation thereof” (Kefalas A/S, priority 1973, dated 1977) can be followed below.

In the case of `OCCN1CCN(CC/C=C2/c3ccccc3Sc3ccc(C(F)(F)F)cc32)CC1` [α-flupenthixol, 9-[3-(4-(2-hydroxyethyl)piperazinyl-(1))-propylidene]-2-trifluoromethyl-thioxanthene, reference compound], the ED50 – broadly, the dose at which the effect has come halfway, by size or by number of responders – is above 20 mg/kg under setting [1] and 0.22 mg/kg under setting [2]. For the same compound, under “i.p. test substance”, the “Methylphenidate antagonism, duration of peak effect” value worked out at 6 h.

On to `OCCN1CCN(CC=CC2c3ccccc3Sc3ccc(C(F)(F)F)cc32)CC1` (stereo not drawn) [Lu 9-212, 2-Trifluoromethyl-9-(3-(4-(2-hydroxyethyl)-piperazin-1-yl)-1propenyl) thioxanthene], for which the “Methylphenidate antagonism, comparison in words (peak effect and duration)” value (from here on “Methylphenidate antagonism, comparison”) was “a more prolonged activity while the peak effect remains at the same level or is somewhat higher”. Also, under setting [1], the ED50 was above 10 mg/kg. Besides, under setting [2], the ED50 is 0.13 mg/kg. Besides, the “Methylphenidate antagonism, duration of peak effect” value (i.p. test substance) came out at 10 h.

With `CN(C)CC=CC1c2ccccc2Sc2ccc(Cl)cc21` (stereo not drawn) [Lu 8-030, 2-Chloro-9-(3-dimethylamino-1-propenyl)-thioxanthene], the “Methylphenidate antagonism, comparison” value is listed as “a more prolonged activity while the peak effect remains at the same level or is somewhat higher”. Under setting [1], the ED50 is above 20 mg/kg. Under setting [2], the ED50 is 5.5 mg/kg. Moreover, the “Methylphenidate antagonism, duration of peak effect” value (i.p. test substance) is given as 3 h.

On to `OCCN1CCN(CC=CC2c3ccccc3Sc3ccc(Cl)cc32)CC1` (stereo not drawn) [Lu 9-244, 2-Chloro-9-(3-(4-(2-hydroxyethyl)piperazin-1-yl)-1-propenyl) thioxanthene], for which the “Methylphenidate antagonism, comparison” value is “a more prolonged activity while the peak effect remains at the same level or is somewhat higher”. In addition, the ED50 under setting [1] was found to be 14.1 mg/kg. Moreover, under setting [2], the 50% effective dose (ED50) is 0.22 mg/kg. In addition, the “Methylphenidate antagonism, duration of peak effect” value (i.p. test substance) came out at 10 h.

As to `CN(C)CC=CC1c2ccc(F)cc2Sc2ccc(C(F)(F)F)cc21` (stereo not drawn) [Lu 11-186, 2-Trifluoromethyl-6-fluoro-9-(3-dimethylamino-1-propenyl)-thioxanthene], the ED50 under setting [2] came out at 0.08 mg/kg. Moreover, the “Methylphenidate antagonism, duration of peak effect” value (i.p. test substance) turned out to be 8 h.

For the compound `OCCN1CCN(CC/C=C2/c3ccccc3Sc3ccc(Cl)cc32)CC1` [α-clopenthixol, 9-[3-(4-(2-hydroxyethyl)piperazinyl-(1))-propylidene]-2-chloro-thioxanthene, reference compound], the 50% effective dose (ED50) under setting [1] was above 20 mg/kg and the 50% effective dose (ED50) under setting [2] came to 1.3 mg/kg. Also, the “Methylphenidate antagonism, duration of peak effect” value (i.p. test substance) worked out at 6 h.

In the case of `OCCC1CCN(CC=CC2c3ccc(F)cc3Sc3ccc(C(F)(F)F)cc32)CC1` (stereo not drawn) [Lu 12-001], the ED50 is 0.1 mg/kg under setting [1] and 0.2 mg/kg under setting [2]. Under “i.p. test substance”, the “Methylphenidate antagonism, duration of peak effect” value is given as 72 h.

For the compound `OCCN1CCN(CC=CC2c3ccc(F)cc3Sc3ccc(C(F)(F)F)cc32)CC1` (stereo not drawn) [Lu 10-153, 2-Trifluoromethyl-6-fluoro-9-(3-(4-(2-hydroxyethyl)piperazine1-yl)-1-propenyl)thioxanthene], the “Methylphenidate antagonism, comparison” value is “unique in combining at the same time the most potent peak effect but also the long lasting effect”. Also, under setting [1], the 50% effective dose (ED50) was found to be 0.06 mg/kg. Under setting [2], the ED50 was determined as 0.03 mg/kg. For the same compound, the “Methylphenidate antagonism, duration of peak effect” value (i.p. test substance) worked out at 30 h.

Consider `CN(C)CC/C=C1/c2ccccc2Sc2ccc(Cl)cc21` [α-chlorprothixen, trans-9-(3-dimethylaminopropylidene)-2-chloro-thioxanthene, reference compound], for which the ED50 is above 20 mg/kg under setting [1] and 2.6 mg/kg under setting [2]. Also, the “Methylphenidate antagonism, duration of peak effect” value (i.p. test substance) is 2 h.

For the compound `OCCC1CCN(CC=CC2c3ccc(F)cc3Oc3ccc(C(F)(F)F)cc32)CC1` (stereo not drawn) [Lu 11-200, 2-Trifluoromethyl-6-fluoro-9-(3-(4-(2-hydroxyethyl)piperidin-1-yl)-1-propenyl) xanthene], the median effective dose (ED50) stood at 1.6 mg/kg under setting [1] and 0.2 mg/kg under setting [2]. Also, the “Methylphenidate antagonism, duration of peak effect” value (i.p. test substance) was found to be 17 h.
